{"source": "paper PMC9049830", "about": "(RSC Advances, 2020)", "key": {"[1]": {"conditions": "Britton–Robinson buffer at pH 7.4 as acceptor and donor solution; cited from earlier work"}, "[2]": {"assay": "Accumulation in the skin after 24 h permeation", "assay_type": "in vitro ADME, porcine", "conditions": "after 24 h skin permeation from ethanolic solution; for Skin accumulation: acceptor fluid pH 7.4, n = 3"}, "[3]": {"assay": "n-octanol/water and n-octanol/phosphate buffer partition coefficient", "assay_type": "physicochemical", "conditions": "for log PpH=5.4: n-octanol/phosphate buffer pH 5.4, 25 °C; for log PpH=7.4: n-octanol/phosphate buffer pH 7.4, 25 °C"}, "[4]": {"assay": "Thermal stability by TG analysis", "assay_type": "physicochemical"}, "[5]": {"assay": "Skin permeation studies in Franz diffusion cells", "assay_type": "in vitro ADME, porcine", "conditions": "after 24 h permeation from ethanolic solution into acceptor phase"}, "[6]": {"conditions": "known ibuprofen salts; cited from earlier work"}, "[7]": {"assay": "Solubility in organic solvents by modified Vogel's method", "assay_type": "physicochemical", "conditions": "25 °C"}, "Solubility": {"assay": "Solubility", "assay_type": "physicochemical", "conditions": "for Solubility in water: deionised water, 25 °C; for Solubility in phosphate buffer pH = 5.4: pH 5.4, 25 °C; for Solubility in phosphate buffer pH = 7.4: pH 7.4, 25 °C"}, "L929 cell lines": {"tested_on": "L929 cell lines", "conditions": "high concentrations; cited from earlier work"}}, "note": "“And” between values parts separate entries of the source, which are not always exact repeats. Equal entries are not always repeated. Marks after values point to notes of the source that are not given here."}
{"compound": "CC(C)Cc1ccc(C(C)C(=O)O)cc1", "note": "(racemic) [rac-IBU, 2-(4-isobutylphenyl)-propionic acid, reference compound]", "values": [{"measurement": "Flux", "setting": "[1]", "result": 0.542, "unit": "μg cm^−2 h^−1"}, {"measurement": "Skin accumulation as % applied dose of IBU", "setting": "[2]", "result": 3.1, "unit": "%"}, {"measurement": "Skin accumulation", "setting": "[2]", "result": "745.69 ± 61.87", "unit": "μg IBU g^−1"}, {"measurement": "log PpH=5.4", "setting": "[3]", "result": 3.192}, {"measurement": "log PpH=7.4", "setting": "[3]", "result": 1.284}, {"measurement": "logP", "setting": "[3]; n-octanol/water", "result": "2.415 ± 0.001"}, {"measurement": "T onset, the onset temperature of the thermal degradation", "setting": "[4]", "result": 189.8, "unit": "°C"}, {"measurement": "Permeation as % applied dose of IBU", "setting": "[5]", "result": 6.06, "unit": "%"}]}
{"compound": "CC(C)Cc1ccc(C(C)C(=O)[O-])cc1.CCCCn1cc[n+](C)c1", "note": "(stereo not shown) [[BMIm][IBU]]", "values": [{"measurement": "log P", "setting": "[6]", "result": 1.15}]}
{"compound": "CC(C)Cc1ccc(C(C)C(=O)[O-])cc1.CCCCCCCCCC[N+](C)(C)CCCCCCCCCC", "note": "[[N1,1,10,10][IBU]]", "values": [{"measurement": "Increase in flux compared to IBU", "setting": "[1]", "result": "four–five-fold"}, {"measurement": "log P", "setting": "[6]", "result": 1.87}]}
{"compound": "CC(C)Cc1ccc(C(C)C(=O)[O-])cc1.CCCCCC[N+](CCCCCC)(CCCCCC)CCCCCC", "note": "[[N6,6,6,6][IBU]]", "values": [{"measurement": "Increase in flux compared to IBU", "setting": "[1]", "result": "four–five-fold"}, {"measurement": "log P", "setting": "[6]", "result": 2.47}]}
{"compound": "CC(C)Cc1ccc(C(C)C(=O)[O-])cc1.CCCC[P+](CCCC)(CCCC)CCCC", "note": "[[P4,4,4,4][IBU]]", "values": [{"measurement": "log P", "setting": "[6]", "result": 1.54}]}
{"compound": "CC(C)Cc1ccc(C(C)C(=O)O)cc1.CCCCCOC(=O)[C@@H](N)C(C)C", "note": "[[ValOAm][IBU], L-valine pentyl ester ibuprofenate]", "values": [{"measurement": "Skin accumulation", "setting": "[2]", "result": "565.60 ± 71.09 ^a μg IBU g^−1"}, {"measurement": "log PpH=5.4", "setting": "[3]", "result": "2.421 ± 0.002"}, {"measurement": "log PpH=7.4", "setting": "[3]", "result": "1.259 ± 0.001"}, {"measurement": "Solubility in hexane (in words)", "setting": "[7]", "result": "partly soluble (partly soluble when 33–100 mg of compound dissolved in 1 cm^3)"}, {"measurement": "T onset, the onset temperature of the thermal degradation", "setting": "[4]", "result": 129.8, "unit": "°C"}, {"measurement": "Permeation as % applied dose of IBU", "setting": "[5]", "result": 11.79, "unit": "%"}, {"measurement": "Solubility in water", "setting": "Solubility", "result": "1.798 ± 0.019", "unit": "g dm^−3"}, {"measurement": "Solubility in phosphate buffer pH = 5.4", "setting": "Solubility", "result": "1.380 ± 0.007", "unit": "g dm^−3"}, {"measurement": "Solubility in phosphate buffer pH = 7.4", "setting": "Solubility", "result": "1.931 ± 0.008", "unit": "g dm^−3"}]}
{"compound": "CC(C)Cc1ccc(C(C)C(=O)O)cc1.CCCCOC(=O)[C@@H](N)C(C)C", "note": "[[ValOBu][IBU], L-valine butyl ester ibuprofenate]", "values": [{"measurement": "Skin accumulation as % applied dose of IBU", "setting": "[2]", "result": 7.0, "unit": "%"}, {"measurement": "Skin accumulation", "setting": "[2]", "result": "815.14 ± 58.92 ^b μg IBU g^−1"}, {"measurement": "T onset, the onset temperature of the thermal degradation", "setting": "[4]", "result": 119.9, "unit": "°C"}, {"measurement": "Permeation as % applied dose of IBU", "setting": "[5]", "result": 10.66, "unit": "%"}, {"measurement": "Solubility in water", "setting": "Solubility", "result": "3.125 ± 0.007", "unit": "g dm^−3"}, {"measurement": "Solubility in phosphate buffer pH = 5.4", "setting": "Solubility", "result": "2.371 ± 0.016", "unit": "g dm^−3"}, {"measurement": "Solubility in phosphate buffer pH = 7.4", "setting": "Solubility", "result": "3.089 ± 0.015", "unit": "g dm^−3"}]}
{"compound": "CC(C)Cc1ccc(C(C)C(=O)O)cc1.CCOC(=O)[C@@H](N)C(C)C", "note": "[[ValOEt][IBU], L-valine ethyl ester ibuprofenate]", "values": [{"measurement": "Skin accumulation as % applied dose of IBU", "setting": "[2]", "result": 3.5, "unit": "%"}, {"measurement": "Skin accumulation", "setting": "[2]", "result": "412.19 ± 38.45", "unit": "μg IBU g^−1"}, {"measurement": "log PpH=5.4", "setting": "[3]", "result": "2.023 ± 0.001"}, {"measurement": "log PpH=7.4", "setting": "[3]", "result": "1.026 and 1.026 ± 0.001"}, {"measurement": "T onset, the onset temperature of the thermal degradation", "setting": "[4]", "result": 89.5, "unit": "°C"}, {"measurement": "Permeation as % applied dose of IBU", "setting": "[5]", "result": 7.33, "unit": "%"}, {"measurement": "Solubility in water", "setting": "Solubility", "result": "5.542 ± 0.007", "unit": "g dm^−3"}, {"measurement": "Solubility in phosphate buffer pH = 5.4", "setting": "Solubility", "result": "3.969 ± 0.056", "unit": "g dm^−3"}, {"measurement": "Solubility in phosphate buffer pH = 7.4", "setting": "Solubility", "result": "5.206 ± 0.044", "unit": "g dm^−3"}]}
{"compound": "CC(C)Cc1ccc(C(C)C(=O)O)cc1.CCCCCCOC(=O)[C@@H](N)C(C)C", "note": "[[ValOHex][IBU], L-valine hexyl ester ibuprofenate]", "values": [{"measurement": "Skin accumulation", "setting": "[2]", "result": "612.86 ± 129.33 ^a μg IBU g^−1"}, {"measurement": "log PpH=5.4", "setting": "[3]", "result": "2.880 ± 0.011"}, {"measurement": "log PpH=7.4", "setting": "[3]", "result": "1.279 and 1.279 ± 0.001"}, {"measurement": "Solubility in hexane (in words)", "setting": "[7]", "result": "soluble (soluble when more than 100 mg of compound was soluble in 1 cm^3)"}, {"measurement": "T onset, the onset temperature of the thermal degradation", "setting": "[4]", "result": 128.9, "unit": "°C"}, {"measurement": "Permeation as % applied dose of IBU", "setting": "[5]", "result": 9.81, "unit": "%"}, {"measurement": "Solubility in water", "setting": "Solubility", "result": "1.058 ± 0.002", "unit": "g dm^−3"}, {"measurement": "Solubility in phosphate buffer pH = 5.4", "setting": "Solubility", "result": "0.759 ± 0.006", "unit": "g dm^−3"}, {"measurement": "Solubility in phosphate buffer pH = 7.4", "setting": "Solubility", "result": "1.233 ± 0.001", "unit": "g dm^−3"}]}
{"compound": "CC(C)Cc1ccc(C(C)C(=O)O)cc1.CCCOC(=O)[C@@H](N)C(C)C", "note": "[[ValOPr][IBU], L-valine propyl ester ibuprofenate]", "values": [{"measurement": "Skin accumulation as % applied dose of IBU", "setting": "[2]", "result": 5.9, "unit": "%"}, {"measurement": "Skin accumulation", "setting": "[2]", "result": "726.42 ± 113.37 ^a μg IBU g^−1"}, {"measurement": "log PpH=5.4", "setting": "[3]", "result": "2.061 ± 0.001"}, {"measurement": "log PpH=7.4", "setting": "[3]", "result": "1.197 ± 0.003"}, {"measurement": "T onset, the onset temperature of the thermal degradation", "setting": "[4]", "result": 109.5, "unit": "°C"}, {"measurement": "Permeation as % applied dose of IBU", "setting": "[5]", "result": 13.55, "unit": "%"}, {"measurement": "Solubility in water", "setting": "Solubility", "result": "4.221 ± 0.033", "unit": "g dm^−3"}, {"measurement": "Solubility in phosphate buffer pH = 5.4", "setting": "Solubility", "result": "3.057 ± 0.045", "unit": "g dm^−3"}, {"measurement": "Solubility in phosphate buffer pH = 7.4", "setting": "Solubility", "result": "5.367 ± 0.019", "unit": "g dm^−3"}]}
{"compound": "CCOC(=O)[C@@H]1CCCN1", "note": "[proline ethyl ester]", "values": [{"measurement": "Decrease of viability", "setting": "L929 cell lines", "result": 20, "unit": "%"}]}
{"compound": "L-valine isopropyl ester ibuprofenate [[ValOiPr][IBU]]", "values": [{"measurement": "Skin accumulation as % applied dose of IBU", "setting": "[2]", "result": 4.9, "unit": "%"}, {"measurement": "Skin accumulation", "setting": "[2]", "result": "630.75 ± 61.87 ^a μg IBU g^−1"}, {"measurement": "log PpH=5.4", "setting": "[3]", "result": "2.186 ± 0.001"}, {"measurement": "log PpH=7.4", "setting": "[3]", "result": "1.172 ± 0.001"}, {"measurement": "T onset, the onset temperature of the thermal degradation", "setting": "[4]", "result": 90.2, "unit": "°C"}, {"measurement": "Permeation as % applied dose of IBU", "setting": "[5]", "result": 12.09, "unit": "%"}]}
